“Also recorded” adds a separate entry of the source.
Legend:
[1] = test system: IMR32 cells; experiment: MTT reduction assay, βA peptide-induced toxicity, IMR32 cells; assay type: cell-based, human
Description: (§1) The degree of βA insult was measured by 3-[4,5-dimethylthiazol-2-yl]-2,5-diphenyltetrazolium bromide (MTT) reduction assay. […] The detection of cell growth or cell death can be determined by observing the conversion of MTT to the colored product, MTT formazan, the concentration of which can be measured […] at 550 nm.
(§2) Cells were incubated in MTT solution (5 mg/ml) at 37° C. for 2 hours. During this time, cells were observed under a microscope every 15 min. Cells were incubated in Lysing buffer (100 μl) overnight at 37° C. Colorimetric determination of MTT reduction was made at 550 nm.
(§3) PC12 rat pheochromocytoma and IMR32 human neuroblastoma cells were obtained from the American Type Culture Collection (ATCC). HUVEC normal umbilical human vein endothelial cells were obtained from Clonetics (San Diego, Calif.). Cells were routinely cultured on a tissue culture plate (Corning, N.Y., N.Y.). PC12 cells were grown in high glucose Dulbecco's Modified Eagle Medium (DMEM), 10% horse serum, 5% fetal calf serum, and 1% penicillin/streptomycin. IMR32 cells were grown in 90% DMEM and 10% fetal calf serum with 1% penicillin/streptomycin. HUVEC cells were grown in EGM-2 Bullet Kit (Clonetics, San Diego, Calif.).

[2] = test system: primary cortical rat neuronal cells; experiment: Protection of primary cortical neuronal cells against βA peptide (1-42) insult; assay type: cell-based; details: compound at 5 μg/ml; βA peptide (1-42) 10 μg/ml
Description: as §2
Primary cortical rat neuronal cells were obtained in the following manner. Dissociated primary neuronal cell cultures were established from 18-day-old Sprague-Dawley rat fetuses. The pups were delivered by caesarean section while the dam was anesthetized with ether. Hippocampal tissue from embryonic day 18 Sprague-Dawley rat pups was dissected and then rinsed in cold Ca^2+/Mg^2+-free Hank's balanced salt solution supplemented with 20 mM HEPES, 4.2 mM sodium bicarbonate, 1 mM pyruvate, and 3 mg/ml bovine serum albumin (BSA). Following gentle trituration of the tissue with a constricted pipette in cold buffer, two volumes of 10% fetal bovine serum (FBS) in DMEM were added to the suspension. After the suspension settled for 2 minutes, the supernatant was collected and centrifuged for 2 min. at 200×g. The cell pellets were resuspended in serum-free DMEM (pH 7.3), supplemented with 2.4 mg/ml BSA and a modification of Brewer's […] defined components (with 250 nM vitamin B12 and without catalase, glutathione, and superoxide dismutase). Cells were plated at a density of 15,000 cells/cm^2 and grown at 37° C. After 24 hours of incubation to allow cell attachment, the serum-containing medium was replaced by defined medium with DMEM/F12 containing bovine transferrin (100 μg/ml), bovine insulin (5 μg/ml), putrescine (0.1 mM), progesterone (10 nM), sodium selenite (30 nM), sodium pyruvate (1 mM), and potassium bicarbonate (15 mM). Cells maintained for extended periods of time were fed twice a week by replacing ⅓ of the medium with fresh medium.

[3] = test system: PC12 cells; experiment: MTT reduction assay, βA peptide-induced toxicity, PC12 cells; assay type: cell-based, rat
Description: as §1, §2, §3
PC12 cells were cultured routinely on polystyrene-coated Corning tissue culture plates. […] The 96-well plates were coated with rat tail collagen (Boehringer Mannheim) in order to promote uniform PC12 cell attachment and growth.

[4] = test system: cells treated with βA peptide; experiment: Protection of cells from βA peptide insult, statements in words (MTT assay, cells not singled out); assay type: cell-based; details: for Protection of cells from βA peptide-induced toxicity, in words: MTT reduction assay, PC12, IMR32, HUVEC cells where named in the sentence; for Microscopic analysis of βA peptide treated cells (MTT formazan granules in the cytosole): synthesized curcuminoid compounds, compared with positive and negative control
Description: as §1, §2

[5] = test system: HUVEC cells; experiment: MTT reduction assay, βA peptide-induced toxicity, HUVEC cells; assay type: cell-based, human; details: Table 1, turmeric-derived natural product compounds
Description: as §1, §2, §3

[6] = Antioxidant assay, scavenging of DPPH free radicals; details: for Antioxidant activity (DPPH free radical scavenging), in words: optical density change of DPPH radicals at 515 nm
Description: Kim et al., Neurosci Lett 303, 57 (2001) and Barik et al., Free Radic Biol Med 39, 811 (2005).
Using an antioxidant assay, the antioxidant potency of the compounds of the invention was evaluated. 1,1-Diphenyl-2-picrylhydrazyl (DPPH) is known to generate stable free radicals in aqueous and ethanolic solutions. The ability of the compounds of the invention to scavenge these free radicals was measured by observing the optical density change of DPPH radicals at 515 nm. Kim et al., Neurosci Lett 303, 57 (2001) and Barik et al., Free Radic Biol Med 39, 811 (2005).
The samples were prepared in various concentrations (200, 20, 2.0, and 0.2 μg/ml) by serial dilution of a stock solution (5 mg/ml) and were tested by the following procedure. Reaction mixtures containing test compounds (dissolved in DMSO) and 300 μM DPPH ethanolic solution in 96-well microtiter plates were incubated at 37° C. for 30 min. and absorbance was measured at 515 nm. Percent inhibition by sample treatment was determined by comparison with a DMSO-treated […] control group. IC50 values were determined from percent inhibition by sample. IC50 values denote the concentration of the tested compound that was required to scavenge 50% of the DPPH free radicals.

[7] = Partition coefficient between water and octane alcohol (log P); assay type: physicochemical
Description: According to this example, the ability of the compounds of the invention to pass through the blood brain barrier was measured. The ability of compounds to cross the blood brain barrier is represented by the log of the partition coefficient (P) of a molecule of the invention between water and octane alcohol. […] Accordingly, the octane alcohol fraction contained more than 1000 times as much of the compounds as the water fraction. […] See Hau et al., Regul Toxicol Pharmacol 35, 273 (2002) and Salminen et al., J Pharm Biomed Anal 15, 469 (1997).

[8] = Table 1, turmeric-derived natural product compounds
[9] = Table 1, turmeric-derived natural product compounds, concentration for 50% cell viability
[10] = Table 1, turmeric-derived natural product compounds, scavenging 50% of DPPH free radicals
[11] = Table 2, synthesized curcuminoids
[12] = Table 2, synthesized curcuminoids, DPPH

Row | Antioxidant IC50 [6, 10] | logP [7] | Antioxidant IC50 [6, 12] | SMILES | Anti-βA peptide(25-35) ED50 IMR32 [1, 8] | Protection of primary cortical neuronal cells against βA peptide (1-42) insult [2] | Anti-βA peptide(1-42) ED50 PC12 [3, 8] | Anti-βA peptide(25-35) ED50 PC12 [3, 9] | Protection of cells from βA peptide-induced toxicity, in words [4] | Anti-βA peptide(1-42) ED50 HUVEC [5] | Anti-βA peptide(25-35) ED50 HUVEC [5] | Anti-βA peptide(1-42) ED50 IMR32 [1, 11] | Anti-βA peptide(25-35) ED50 IMR32 [1, 11] | Anti-βA peptide(1-42) ED50 PC12 [3, 11] | Anti-βA peptide(25-35) ED50 PC12 [3, 11] | Microscopic analysis of βA peptide treated cells (MTT formazan granules in the cytosole) [4] | Antioxidant activity (DPPH free radical scavenging), in words [6]
1 | >200 µg/mL | – | – | O=C(C=C(O)C=Cc1ccc(O)c(O)c1)CCc1ccc(O)cc1 [Compound 5] | 1.5 µg/mL | protected | 3.0 µg/mL | 2.5 µg/mL | protected | 1.5 µg/mL | 2.0 µg/mL | – | – | – | – | – | –
2 | >200 µg/mL | 3.1 | 32.6 µg/mL | O=C(C=Cc1ccc(O)cc1)CC(=O)C=Cc1ccc(O)cc1 [Compound 3, 1,7-bis(4-hydroxyphenyl)-1,6-heptadiene-3,5-dione] | 2.5 µg/mL | protected | 3.5 µg/mL | 2.0 µg/mL | protected | 2.0 µg/mL | 2.4 µg/mL | 3.5 µg/mL | 3.0 µg/mL | 4.5 µg/mL | 3.0 µg/mL | effectively protect | significant antioxidant activity
3 | 36.2 µg/mL | – | – | COc1cc(C=CC(=O)CC(=O)C=Cc2ccc(O)cc2)ccc1O [Compound 2, 1-(4-hydroxy-3-methoxyphenyl)-7-(4-hydroxyphenyl)-1,6-heptadiene-3,5-dione] | 4.0 µg/mL | protected | 5.0 µg/mL | 4.0 µg/mL | protected | 5.0 µg/mL | 4.5 µg/mL | – | – | – | – | – | strong antioxidant activity
4 | >200 µg/mL | – | >200 µg/mL | O=C(C=Cc1ccc(O)cc1)CC(=O)CCc1ccc(O)cc1 [Compound 4, 1,7-bis(4-hydroxyphenyl)-1-heptene-3,5-dione] | 1.2 µg/mL | protected | 1.0 µg/mL | 0.5 µg/mL | protected; also recorded: best protection | 1.0 µg/mL | 0.8 µg/mL | 2.0 µg/mL | 1.5 µg/mL | 1.0 µg/mL | 0.5 µg/mL | effectively protect | –
5 | >200 µg/mL | – | – | COc1cc(/C=C/C(=O)COC(=O)/C=C/c2ccc(O)c(OC)c2)ccc1O [Compound 6, 4″-(3′″-methoxy-4′″-hydroxyphenyl)-2″-oxo-3″-enebutanyl 3-(3′-methoxy-4′-hydroxyphenyl)propenoate] | 1.0 µg/mL | protected | 2.0 µg/mL | 1.0 µg/mL | protected | 1.0 µg/mL | 1.5 µg/mL | – | – | – | – | – | –

Reference: patent US7728043B2, “Methods for treatment of beta-amyloid protein-induced ocular disease” (priority 1999, dated 2010)
